Patent US20240158370A1, “CK1 alpha AND DUAL CK1 alpha / GSPT1 DEGRADING COMPOUNDS” (Innovo Therapeutics, Inc., priority 2022, published 2024)

How the values were obtained:
GSPT1 = GSPT1 (Homo sapiens, UniProt P15170+Q96SW2); assay: HiBiT degradation assay, GSPT1, Procedure A; type: cell-based; design: HiBit-GSPT1 KI HEK293(LgBit) Cells; host or cells: HEK293(LgBit) knock-in cells
Outline: (§1)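 Six-hour treatment at 37° C, ten doses between 10 μM and 0.005 μM, then HiBiT lytic luminescence. Fitted DC50 and Ymin.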

CK1α = target: T1, CK1α (Homo sapiens, UniProt P48729+Q96SW2); assay: HiBiT degradation assay, CK1α, Procedure A; type: cell-based
T1 construct: CSNK1A1-HiBit KI HEK293(LgBit) Cells; host or cells: HEK293(LgBit) knock-in cells
Outline: as §1

GSPT1, sequence (P15170 whole entry): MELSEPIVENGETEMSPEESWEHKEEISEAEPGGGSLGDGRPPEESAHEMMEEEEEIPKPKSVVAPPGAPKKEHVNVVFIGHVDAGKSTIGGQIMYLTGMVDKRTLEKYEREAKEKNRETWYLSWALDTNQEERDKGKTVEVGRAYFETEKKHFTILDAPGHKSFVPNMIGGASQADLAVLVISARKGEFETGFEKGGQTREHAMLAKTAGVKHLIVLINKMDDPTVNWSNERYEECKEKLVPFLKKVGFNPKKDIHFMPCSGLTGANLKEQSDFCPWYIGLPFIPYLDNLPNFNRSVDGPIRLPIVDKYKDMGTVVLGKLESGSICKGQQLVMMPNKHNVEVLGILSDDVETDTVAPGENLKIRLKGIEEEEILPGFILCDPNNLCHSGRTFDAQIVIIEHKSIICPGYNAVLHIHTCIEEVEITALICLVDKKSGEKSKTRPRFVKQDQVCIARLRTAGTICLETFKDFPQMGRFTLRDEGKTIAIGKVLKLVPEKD
GSPT1, sequence (Q96SW2 whole entry): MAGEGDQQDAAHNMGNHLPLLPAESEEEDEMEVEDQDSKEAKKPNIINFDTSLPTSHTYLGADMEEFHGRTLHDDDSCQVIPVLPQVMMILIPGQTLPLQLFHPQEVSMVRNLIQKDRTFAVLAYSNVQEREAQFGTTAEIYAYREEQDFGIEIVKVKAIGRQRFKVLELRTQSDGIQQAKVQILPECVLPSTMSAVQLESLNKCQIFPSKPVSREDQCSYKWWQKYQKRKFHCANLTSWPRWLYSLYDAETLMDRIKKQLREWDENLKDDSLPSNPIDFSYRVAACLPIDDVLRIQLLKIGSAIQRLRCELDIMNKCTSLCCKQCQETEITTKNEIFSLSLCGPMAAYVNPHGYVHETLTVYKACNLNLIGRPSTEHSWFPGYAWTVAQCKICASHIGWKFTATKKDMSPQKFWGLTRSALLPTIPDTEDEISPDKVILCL
GSPT1, sequence (Q16531 whole entry partner): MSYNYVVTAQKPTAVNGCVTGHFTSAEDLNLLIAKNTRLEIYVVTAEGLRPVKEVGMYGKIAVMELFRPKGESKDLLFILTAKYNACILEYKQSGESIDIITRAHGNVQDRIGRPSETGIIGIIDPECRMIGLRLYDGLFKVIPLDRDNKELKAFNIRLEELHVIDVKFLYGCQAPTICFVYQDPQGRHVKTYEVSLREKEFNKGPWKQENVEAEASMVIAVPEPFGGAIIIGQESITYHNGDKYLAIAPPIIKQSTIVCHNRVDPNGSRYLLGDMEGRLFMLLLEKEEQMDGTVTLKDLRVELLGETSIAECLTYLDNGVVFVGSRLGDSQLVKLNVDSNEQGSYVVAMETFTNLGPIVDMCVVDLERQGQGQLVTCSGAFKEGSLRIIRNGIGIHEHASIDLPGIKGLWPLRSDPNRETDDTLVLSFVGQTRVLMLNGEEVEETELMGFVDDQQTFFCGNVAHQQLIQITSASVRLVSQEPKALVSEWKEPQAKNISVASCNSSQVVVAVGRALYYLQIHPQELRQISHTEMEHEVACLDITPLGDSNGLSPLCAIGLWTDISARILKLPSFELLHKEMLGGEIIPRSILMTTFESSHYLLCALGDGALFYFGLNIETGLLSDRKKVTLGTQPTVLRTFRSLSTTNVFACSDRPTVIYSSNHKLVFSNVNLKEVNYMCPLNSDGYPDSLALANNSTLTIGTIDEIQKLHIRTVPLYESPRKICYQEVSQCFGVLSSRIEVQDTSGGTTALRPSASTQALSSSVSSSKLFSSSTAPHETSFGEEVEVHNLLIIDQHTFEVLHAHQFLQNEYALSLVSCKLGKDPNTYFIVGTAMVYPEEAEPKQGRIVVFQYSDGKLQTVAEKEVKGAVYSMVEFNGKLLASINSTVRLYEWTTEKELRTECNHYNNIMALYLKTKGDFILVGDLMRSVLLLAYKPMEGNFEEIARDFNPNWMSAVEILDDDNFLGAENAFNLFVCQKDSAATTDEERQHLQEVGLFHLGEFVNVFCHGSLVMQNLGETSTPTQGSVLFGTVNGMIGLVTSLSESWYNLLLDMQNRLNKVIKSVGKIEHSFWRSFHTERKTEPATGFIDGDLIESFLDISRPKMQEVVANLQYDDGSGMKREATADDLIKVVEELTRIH
T1 sequence (P48729 whole entry): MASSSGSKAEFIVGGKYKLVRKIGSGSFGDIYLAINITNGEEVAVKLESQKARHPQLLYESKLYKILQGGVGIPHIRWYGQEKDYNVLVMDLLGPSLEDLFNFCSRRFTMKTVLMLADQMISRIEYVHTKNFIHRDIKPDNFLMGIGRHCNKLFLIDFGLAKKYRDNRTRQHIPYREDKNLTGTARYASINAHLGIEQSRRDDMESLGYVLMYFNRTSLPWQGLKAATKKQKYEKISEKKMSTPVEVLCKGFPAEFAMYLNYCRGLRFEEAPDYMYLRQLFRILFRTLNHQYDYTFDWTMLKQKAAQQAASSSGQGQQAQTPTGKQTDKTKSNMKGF
T1 sequence (Q96SW2 whole entry): as the sequence (Q96SW2 whole entry) above
T1 sequence (Q16531 whole entry partner): as the sequence (Q16531 whole entry partner) above

| Compound | DC50 (GSPT1; six hours incubation) | GSPT1 Ymin (GSPT1; six hours incubation) | CK1α Ymin (CK1α; six hours incubation) | DC50 (CK1α; six hours incubation) | DC50 (GSPT1; six hours) | GSPT1 Ymin (GSPT1; six hours) | CK1α Ymin (CK1α; six hours) | DC50 (CK1α; six hours) |
| --- | --- | --- | --- | --- | --- | --- | --- | --- |
| Cn1ncc(-c2ccc3c(c2)CN(C2CCC(=O)NC2=O)C3=O)c1-c1ccc(OCc2ccccc2)cc1 (stereo not drawn) [Example 61] | ≥ 0.025 µM | F (F = >75-100% remaining) | E (E = >25-75% remaining) | < 0.025 µM | – | – | – | – |
| Cc1oncc1-c1c(-c2ccc3c(c2)CN(C2CCC(=O)NC2=O)C3=O)cnn1C (stereo not drawn) [Example 452] | – | – | – | – | ≥ 0.025 µM | F (F = >75-100% remaining) | E (E = >25-75% remaining) | < 0.025 µM |
| COc1ccc(-c2c(-c3ccc4c(c3)CN(C3CCC(=O)NC3=O)C4=O)cnn2C)c(C)c1 (stereo not drawn) [Example 143] | ≥ 0.025 µM | F (F = >75-100% remaining) | D (D = >10- 25% remaining) | < 0.025 µM | – | – | – | – |
| Cn1ncc(-c2ccc3c(c2)CN(C2CCC(=O)NC2=O)C3=O)c1-c1cc(F)cc(F)c1 (stereo not drawn) [Example 139] | < 0.025 µM | F (F = >75-100% remaining) | E (E = >25-75% remaining) | ≥ 0.025 µM | – | – | – | – |
| Cn1nc(-c2ccc3c(c2)CN(C2CCC(=O)NC2=O)C3=O)nc1N1Cc2ccccc2C1 (stereo not drawn) [Example 609, 3-(5-(5-(isoindolin-2-yl)-1-methyl-1H-1,2,4-triazol-3-yl)-1-oxoisoindolin-2-yl)piperidine-2,6-dione] | – | – | – | – | ≥ 0.025 µM | F (F = >75-100% remaining) | E (E = >25-75% remaining) | < 0.025 µM |
| O=C1CCC(N2Cc3cc(-c4nc[nH]c4-c4ccccc4)ccc3C2=O)C(=O)N1 (stereo not drawn) [Example 13, 3-(1-Oxo-5-(5-phenyl-1H-imidazol-4-yl)isoindolin-2-yl) piperidine-2,6-dione] | < 0.025 µM | E (E = >25-75% remaining) | C (C = 0-10% remaining) | < 0.025 µM | – | – | – | – |
| CN1Cc2cccc(-c3c(-c4ccc5c(c4)CN(C4CCC(=O)NC4=O)C5=O)ncn3C)c2C1 (stereo not drawn) [Example 264] | < 0.025 µM | E (E = >25-75% remaining) | E (E = >25-75% remaining) | ≥ 0.025 µM | – | – | – | – |
| Cn1ncc(-c2ccc3c(c2)CN(C2CCC(=O)NC2=O)C3=O)c1-c1ccc(-c2ccc(C#N)cc2)cc1 (stereo not drawn) [Example 101] | ≥ 0.025 µM | F (F = >75-100% remaining) | E (E = >25-75% remaining) | < 0.025 µM | – | – | – | – |
| Cn1ncc(-c2ccc3c(c2)CN(C2CCC(=O)NC2=O)C3=O)c1-c1ccccc1F (stereo not drawn) [Example 67] | ≥ 0.025 µM | F (F = >75-100% remaining) | E (E = >25-75% remaining) | < 0.025 µM | – | – | – | – |
| COc1cccc(-c2c(-c3ccc4c(c3)CN(C3CCC(=O)NC3=O)C4=O)ncn2C)c1 (stereo not drawn) [Example 345] | ≥ 0.025 µM | F (F = >75-100% remaining) | E (E = >25-75% remaining) | < 0.025 µM | – | – | – | – |
| Cn1cnc(-c2ccc3c(c2)CN(C2CCC(=O)NC2=O)C3=O)c1-c1ccc(Cl)s1 (stereo not drawn) [Example 181] | ≥ 0.025 µM | E (E = >25-75% remaining) | C (C = 0-10% remaining) | < 0.025 µM | – | – | – | – |
| COc1ccc2cc(-c3c(-c4ccc5c(c4)CN(C4CCC(=O)NC4=O)C5=O)cnn3C)ccc2c1 (stereo not drawn) [Example 149] | < 0.025 µM | F (F = >75-100% remaining) | D (D = >10- 25% remaining) | < 0.025 µM | – | – | – | – |
| Cn1ncc(-c2ccc3c(c2)CN(C2CCC(=O)NC2=O)C3=O)c1C1=CCCCC1 (stereo not drawn) [Example 589] | – | – | – | – | ≥ 0.025 µM | F (F = >75-100% remaining) | E (E = >25-75% remaining) | < 0.025 µM |
| CCOC(=O)Cc1cccc(-c2c(-c3ccc4c(c3)CN(C3CCC(=O)NC3=O)C4=O)cnn2C)c1 (stereo not drawn) [Example 410] | – | – | – | – | ≥ 0.025 µM | F (F = >75-100% remaining) | E (E = >25-75% remaining) | < 0.025 µM |
| Cn1ncc(-c2ccc3c(c2)CN(C2CCC(=O)NC2=O)C3=O)c1-c1cccc(-n2cccn2)c1 (stereo not drawn) [Example 479] | – | – | – | – | ≥ 0.025 µM | F (F = >75-100% remaining) | E (E = >25-75% remaining) | < 0.025 µM |
| Cn1cnc(-c2ccc3c(c2)CN(C2CCC(=O)NC2=O)C3=O)c1-c1ccc2ncnn2c1 (stereo not drawn) [Example 490] | – | – | – | – | ≥ 0.025 µM | F (F = >75-100% remaining) | E (E = >25-75% remaining) | ≥ 0.025 µM |
| Cc1ncccc1-c1c(-c2ccc3c(c2)CN(C2CCC(=O)NC2=O)C3=O)cnn1C (stereo not drawn) [Example 472] | – | – | – | – | ≥ 0.025 µM | F (F = >75-100% remaining) | E (E = >25-75% remaining) | < 0.025 µM |
| Cn1cnc(-c2ccc3c(c2)CN(C2CCC(=O)NC2=O)C3=O)c1-c1cc(Cl)ccc1C#N (stereo not drawn) [Example 272] | < 0.025 µM | F (F = >75-100% remaining) | E (E = >25-75% remaining) | < 0.025 µM | – | – | – | – |
| Cn1cnc(-c2ccc3c(c2)CN(C2CCC(=O)NC2=O)C3=O)c1-c1ccsc1 (stereo not drawn) [Example 226] | < 0.025 µM | E (E = >25-75% remaining) | C (C = 0-10% remaining) | < 0.025 µM | – | – | – | – |
| Cn1ncc(-c2ccc3c(c2)CN(C2CCC(=O)NC2=O)C3=O)c1-c1ccc2c(c1)ncn2C (stereo not drawn) [Example 476] | – | – | – | – | ≥ 0.025 µM | F (F = >75-100% remaining) | D (D = >10- 25% remaining) | ≥ 0.025 µM |
| Cn1cnc(-c2ccc3c(c2)CN(C2CCC(=O)NC2=O)C3=O)c1-c1ccc(F)c(F)c1 (stereo not drawn) [Example 177] | < 0.025 µM | E (E = >25-75% remaining) | D (D = >10- 25% remaining) | < 0.025 µM | – | – | – | – |
| Cn1cnc(-c2ccc3c(c2)CN(C2CCC(=O)NC2=O)C3=O)c1-c1cc(Cl)ccc1F (stereo not drawn) [Example 261] | ≥ 0.025 µM | F (F = >75-100% remaining) | E (E = >25-75% remaining) | < 0.025 µM | – | – | – | – |
| Cc1c[nH]c2cc(-c3c(-c4ccc5c(c4)CN(C4CCC(=O)NC4=O)C5=O)ncn3C)ccc12 (stereo not drawn) [Example 512] | – | – | – | – | < 0.025 µM | F (F = >75-100% remaining) | C (C = 0-10% remaining) | < 0.025 µM |
| Cn1ncc(-c2ccc3c(c2)CN(C2CCC(=O)NC2=O)C3=O)c1-c1cnn(-c2ccccc2)c1 (stereo not drawn) [Example 395] | – | – | – | – | < 0.025 µM | E (E = >25-75% remaining) | F (F = >75-100% remaining) | < 0.025 µM |
| Cn1cc(-c2c(-c3ccc4c(c3)CN(C3CCC(=O)NC3=O)C4=O)cnn2C)cn1 (stereo not drawn) [Example 366] | ≥ 0.025 µM | F (F = >75-100% remaining) | C (C = 0-10% remaining) | < 0.025 µM | – | – | – | – |
| Cn1ncc(-c2ccc3c(c2)CN(C2CCC(=O)NC2=O)C3=O)c1-c1ccc(C(=O)NCc2ccccc2)c(Cl)c1 (stereo not drawn) [Example 102] | ≥ 0.025 µM | F (F = >75-100% remaining) | E (E = >25-75% remaining) | ≥ 0.025 µM | – | – | – | – |
| O=C1CCC(N2Cc3cc(-c4cn(C(F)F)nc4-c4cncnc4)ccc3C2=O)C(=O)N1 (stereo not drawn) [Example 536, 3-(5-(1-(difluoromethyl)-3-(pyrimidin-5-yl)-1H-pyrazol-4-yl)-1-oxoisoindolin-2-yl)piperidine-2,6-dione] | – | – | – | – | ≥ 0.025 µM | F (F = >75-100% remaining) | F (F = >75-100% remaining) | ≥ 0.025 µM |
| CC(C)c1ccc(-c2c(-c3ccc4c(c3)CN(C3CCC(=O)NC3=O)C4=O)ncn2C)cc1 (stereo not drawn) [Example 246] | ≥ 0.025 µM | F (F = >75-100% remaining) | E (E = >25-75% remaining) | < 0.025 µM | – | – | – | – |
| Cn1cnc(-c2ccc3c(c2)CN(C2CCC(=O)NC2=O)C3=O)c1-c1cc(C#N)ccc1F (stereo not drawn) [Example 186] | ≥ 0.025 µM | F (F = >75-100% remaining) | E (E = >25-75% remaining) | ≥ 0.025 µM | – | – | – | – |
| COc1ccc(-c2c(-c3ccc4c(c3)CN(C3CCC(=O)NC3=O)C4=O)cnn2C)cc1F (stereo not drawn) [Example 104] | ≥ 0.025 µM | F (F = >75-100% remaining) | C (C = 0-10% remaining) | < 0.025 µM | – | – | – | – |
